Measured values taken from patent publication US7160901B2, “Substituted indolinones, preparation thereof and their use as pharmaceutical compositions” (Boehringer Ingelheim Pharma GmbH & Co. KG, priority 2000, dated 2007).

Experiments:
[1] = tested on: Leiomyosarcoma tumour cell line SK-UT-1B; assay: Test 1: inhibition of the proliferation of cultivated human tumour cells (14C-thymidine incorporation), SK-UT-1B; assay type: cell-based; settings: Homo sapiens, Skut1B; in vitro Test 1; SK-UT-1B cells; 48 hours' incubation, then 14C-thymidine for a further 24 hours; IC50 of inhibition of incorporated 14C-thymidine; read-out: Inhibition of SKUT-1B proliferation
Source text: Inhibition of the Proliferation of Cultivated Human Tumour Cells
Cells of the Leiomyosarcoma tumour cell line SK-UT-1B or non-small-cell lung tumour cell line NCI-H460 (obtained from the American Type Culture Collection (ATCC)) were cultivated in Minimum Essential Medium with non-essential amino acids (Gibco), supplemented with sodium pyruvate (1 mMol), glutamine (2 mMol) and 10% foetal calf serum (Gibco) or RPMI1640 Medium (Gibco) and 10% foetal calf serum (Gibco) and harvested in the logarithmic growth phase. Then the SK-UT-1B cells were placed in Cytostar® multi-well plates (Amersham) at a density of 4000 cells per well or 3000 cells per well for NCI-H460 cells and incubated overnight in an incubator. Various concentrations of the compounds (dissolved in DMSO; final concentration: 0.1%) were added to the cells. After 48 hours' incubation, ^14C-thymidine (Amersham) was added to each well and incubation was continued for a further 24 hours. The quantity of ^14C-thymidine which was incorporated into the tumour cells in the presence of the inhibitor and which represents the number of cells in the S phase was measured in a Wallace 1450 Microbeta Liquid Scintillation Counter. IC50 values for the inhibition of the proliferation (=inhibition of incorporated ^14C-thymidine) were calculated, correcting for the background radiation. All the measurements were done twice.
The following Table contains the results obtained with the in vitro Test 1 (++ denotes <0.01 μM, + denotes 0.01–1.0 μM): […]

SMILES	melting point [°C]	IC50 [1] [nM]
CC(=O)N(CCN(C)C)c1ccc(N/C(=C2\C(=O)Nc3ccc(N(C)S(=O)(=O)c4ccccc4)cc32)c2ccccc2)cc1 [Example 208, (Z)-3-{1-[4-(N-(2-dimethylamino-ethyl)-N-acetyl-amino)-phenylamino)-1-phenyl-methylidene}-5-(N-methyl-N-phenylsulphonyl-amino)-2-indolinone]	217	–
CS(=O)(=O)Nc1ccc2c(c1)/C(=C(/Nc1ccc(CN3CCCCC3)cc1)c1ccccc1)C(=O)N2 [Example 98, (Z)-3-[1-(4-piperidinomethyl-phenylamino)-1-phenyl-methylidene]-5-methylsulphonylamino-2-indolinone]	266	10 to 1000
CN(C)Cc1cccc(N/C(=C2\C(=O)Nc3ccc(N(C)S(=O)(=O)c4ccccc4)cc32)c2ccccc2)c1 [Example 210, (Z)-3-[1-(3-dimethylaminomethyl-phenylamino)-1-phenyl-methylidene]-5-(N-methyl-N-phenylsulphonyl-amino)-2-indolinone]	226	–
CN(C(=O)CN1CCCCC1)c1ccc(N/C(=C2\C(=O)Nc3ccc(N(C)S(=O)(=O)c4ccccc4)cc32)c2ccccc2)cc1 [Example 209, (Z)-3-{1-[4-(N-methyl-N-piperidinomethylcarbonyl-amino)-phenylamino)-1-phenyl-methylidene}-5-(N-methyl-N-phenylsulphonyl-amino)-2-indolinone]	160	–
CN(C)CCN(c1ccc(N/C(=C2\C(=O)Nc3ccc(N(C)S(=O)(=O)c4ccccc4)cc32)c2ccccc2)cc1)S(C)(=O)=O [Example 207, (Z)-3-{1-[4-(N-(2-dimethylamino-ethyl)-N-methylsulphonyl-amino)-phenylamino)-1-phenyl-methylidene}-5-(N-methyl-N-phenylsulphonyl-amino)-2-indolinone]	–	10 to 1000
CS(=O)(=O)Nc1ccc2c(c1)/C(=C(/Nc1ccc(CN3CCCC3)cc1)c1ccccc1)C(=O)N2 [Example 145, (Z)-3-{1-[4-(pyrrolidin-1-ylmethyl)-phenylamino]-1-phenyl-methylidene}-5-methylsulphonylamino-2-indolinone]	–	10 to 1000
CCS(=O)(=O)Nc1ccc2c(c1)/C(=C(/Nc1ccc(CN(C)C)cc1)c1ccccc1)C(=O)N2 [Example 70, (Z)-3-{1-[4-dimethylaminomethyl-phenylamino]-1-phenyl-methylidene}-5-ethylsulphonylamino-2-indolinone]	–	10 to 1000
CC1CCCC(C)N1Cc1ccc(N/C(=C2\C(=O)Nc3ccc(NS(=O)(=O)c4cccc([N+](=O)[O-])c4)cc32)c2ccccc2)cc1 (stereo not shown) [Example 66, (Z)-3-{1-[4-((2,6-dimethylpiperidino)-methyl)-phenylamino]-1-phenyl-methylidene}-5-(3-nitrophenylsulphonylamino)-2-indolinone]	–	< 10

Next, values leading:

melting point [°C]	IC50 [1] [nM]	SMILES
248 to 249	–	CCOC(=O)Cc1ccc(N/C(=C2\C(=O)Nc3ccc(NS(=O)(=O)c4ccccc4)cc32)c2ccccc2)cc1 [Example 152, (Z)-3-[1-(4-ethoxycarbonylmethyl-phenylamino)-1-phenyl-methylidene]-5-phenylsulphonylamino-2-indolinone]
305 to 306	–	O=C(O)Cc1ccc(N/C(=C2\C(=O)Nc3ccc(NS(=O)(=O)c4ccccc4)cc32)c2ccccc2)cc1 [Example 153, (Z)-3-[1-(4-carboxymethyl-phenylamino)-1-phenyl-methylidene]-5-phenylsulphonylamino-2-indolinone]
216 to 217	–	CS(=O)(=O)N(CC(N)=O)c1ccc(N/C(=C2\C(=O)Nc3ccc(NS(=O)(=O)c4ccccc4)cc32)c2ccccc2)cc1 [Example 155, (Z)-3-{1-[4-(N-(aminocarbonylmethyl)-N-methylsulphonyl-amino)-phenylamino]-1-phenyl-methylidene}-5-phenylsulphonylamino-2-indolinone]
219 to 220	–	O=C(Cc1ccc(N/C(=C2\C(=O)Nc3ccc(NS(=O)(=O)c4ccccc4)cc32)c2ccccc2)cc1)NCc1ccccc1 [Example 154, (Z)-3-{1-[4-(benzylaminocarbonylmethyl)-phenylamino]-1-phenyl-methylidene}-5-phenylsulphonylamino-2-indolinone]
–	10 to 1000	CS(=O)(=O)N(CCN)c1ccc(N/C(=C2\C(=O)Nc3ccc(NS(=O)(=O)c4ccccc4)cc32)c2ccccc2)cc1 [Example 2, (Z)-3-{1-[4-(N-(2-aminoethyl)-N-methylsulphonyl-amino)-phenylamino]-1-phenyl-methylidene}-5-phenylsulphonylamino-2-indolinone]
–	< 10	O=C1Nc2ccc(NS(=O)(=O)c3cccc([N+](=O)[O-])c3)cc2/C1=C(/Nc1ccc(CN2CCCCC2)cc1)c1ccccc1 [Example 112, (Z)-3-{1-[4-(piperidinomethyl)-phenylamino]-1-phenyl-methylidene}-5-(3-nitrophenylsulphonylamino)-2-indolinone]
–	10 to 1000	O=C1Nc2ccc(NS(=O)(=O)c3ccccc3)cc2/C1=C(/Nc1ccc(CN2CCCC2)cc1)c1ccccc1 [Example 12, (Z)-3-{1-[4-(pyrrolidin-1-ylmethyl)-phenylamino]-1-phenyl-methylidene}-5-phenylsulphonylamino-2-indolinone]
–	< 10	CN(C)CCN(c1ccc(N/C(=C2\C(=O)Nc3ccc(NS(=O)(=O)c4ccccc4)cc32)c2ccccc2)cc1)S(=O)(=O)c1ccccc1 [Example 4, (Z)-3-{1-[4-(N-(2-dimethylaminoethyl)-N-phenylsulphonyl-amino)-phenylamino)-1-phenyl-methylidene}-5-phenylsulphonylamino-2-indolinone]
–	10 to 1000	O=C1Nc2ccc(NS(=O)(=O)c3cccnc3)cc2/C1=C(/Nc1ccc(C(=O)N2CCCC2)cc1)c1ccccc1 [Example 88, (Z)-3-{1-[4-(pyrrolidin-1-ylcarbonyl)-phenylamino]-1-phenyl-methylidene}-5-(pyridin-3-ylsulphonylamino)-2-indolinone]
216	–	CC(=O)N(CCN)c1ccc(N/C(=C2\C(=O)Nc3ccc(NS(=O)(=O)c4ccccc4)cc32)c2ccccc2)cc1 [Example 1, (Z)-3-{1-[4-(N-acetyl-N-(2-aminoethyl)-amino)-phenylamino]-1-phenyl-methylidene}-5-phenylsulphonylamino-2-indolinone]
